From US5466440A, “Formulations of oral gastrointestinal diagnostic X-ray contrast agents in combination with pharmaceutically acceptable clays” (Eastman Kodak Company, priority 1994, dated 1995)
Values after ≈ are worked out from the molar mass of the structure shown.

Assays:
[1] = X-ray diagnostic imaging of the GI tract; assay type: in vivo, rats; conditions: for Imaging efficacy, stabilized with Pluronic F88: milled with F88
Protocol: X-ray diagnostic imaging was performed in anesthetized rats with the exception of G05-R1 samples which were imaged in fasted and anesthetized ferrets. Images were obtained using the Siemens C-Arm Siremobil 3U x-ray unit. The imaging dose was 10 ml/kg administered via gastric intubation to the anesthetized animal. X-rays were taken at 15, 30, 45 and 60 minutes and at 1, 2, 5 and 24 hours post-dose. […]
Images were evaluated by the criteria of: coating, homogeneity, rate of gastric emptying and the total transit time. These are considered to be a measure of the stability of the nanosuspension during transit down the GI tract and the ability of the formulation to image the lower gastrointestinal tract. Nanosuspensions were rated excellent when there was a uniform coating with transradiation of long intestinal segments, sufficient radiodensity to delineate anatomical structure, rapid emptying and transit, and stability and homogeneity during GI transit. A plus sign (+) was assigned when imaging in the lower GI was exceptional, a minus sign (-) as given when it was not. […] All other nanosuspensions were compared with this formulation.

[2] = X-ray diagnostic imaging of the GI tract; assay type: in vivo; conditions: ferrets; milled in Pluronic F127
Protocol: X-ray diagnostic imaging was performed in anesthetized rats with the exception of G05-R1 samples which were imaged in fasted and anesthetized ferrets. Images were obtained using the Siemens C-Arm Siremobil 3U x-ray unit. The imaging dose was 10 ml/kg administered via gastric intubation to the anesthetized animal. X-rays were taken at 15, 30, 45 and 60 minutes and at 1, 2, 5 and 24 hours post-dose. A 10-15 ml volume of air was introduced to the animal at 30 minutes to produce a double contrast image.
Images were evaluated by the criteria of: coating, homogeneity, rate of gastric emptying and the total transit time. These are considered to be a measure of the stability of the nanosuspension during transit down the GI tract and the ability of the formulation to image the lower gastrointestinal tract. Nanosuspensions were rated excellent when there was a uniform coating with transradiation of long intestinal segments, sufficient radiodensity to delineate anatomical structure, rapid emptying and transit, and stability and homogeneity during GI transit. A plus sign (+) was assigned when imaging in the lower GI was exceptional, a minus sign (-) as given when it was not. The nanosuspension of WIN 8883 milled in Pluronic F127, was considered to be excellent for both upper and lower GI imaging in both rats and ferrets. All other nanosuspensions were compared with this formulation.

Aqueous solubility = assay type: physicochemical; conditions: water, Table 3

Structure (SMILES)	solubility (Aqueous solubility)	Imaging efficacy, overall [1]	Lower GI imaging [1]	further results
CCCCC(CC)COC(=O)CC(C(=O)OCC(CC)CCCC)S(=O)(=O)O (stereo not shown) [DOSS, dioctylsulfosuccinate]	–	–	–	Stabilizing effect on imaging efficacy ([1]; stabilizer for WIN 8883 nanosuspension): fair
CCOC(=O)c1c(I)c(NC(C)=O)c(I)c(C(=O)OCC)c1I [WIN 59316, Diethyl 5-acetylamino-2,4,6-triiodo-isophthalate]	1 µg/mL (≈ 1.52 µM)	fair	imaging well in the lower GI tract	–
COc1ccc(COC(=O)c2c(I)c(NC(C)=O)c(I)c(NC(C)=O)c2I)cc1 [WIN 67754, 3,5-Bis-acetylamino-2,4,6-triiodo-benzoic acid 4-methoxy-benzyl ester]	15 µg/mL (≈ 20.4 µM)	good	exceptional	–
CCOC(=O)C(CC)OC(=O)c1c(I)c(NC(C)=O)c(I)c(C(=O)OC(CC)C(=O)OCC)c1I (stereo not shown) [WIN 68183, Bis-[1-(ethoxycarbonyl)propyl]-2,4,6-triiodo-5-acetylamino-isophthalate]	< 1 µg/mL	excellent	not as definitive as with WIN 8883	Imaging efficacy, stabilized with Pluronic F88 [1]: loss of efficacy
CCc1c(I)c(CC)c(I)c(CC)c1I [WIN 68756, 1,3,5-Triethyl-2,4,6-triiodobenzene]	< 1 µg/mL	excellent	not as definitive as with WIN 8883	Imaging efficacy, stabilized with Pluronic F88 [1]: loss of efficacy

Continued, in another order:

solubility (Aqueous solubility)	Structure (SMILES)	Imaging efficacy, overall [1]	Lower GI imaging [1]	further results
< 5 µg/mL	CCOC(=O)c1c(I)c(NC(C)=O)c(I)c(NC(C)=O)c1I [WIN 8883, Ethyl 3,5-bis(acetylamino)-2,4,6-triiodobenzoate]	excellent	–	Imaging efficacy, stabilized with Pluronic F88 [1]: excellent imaging, and then only in the upper GI; Upper and lower GI imaging ([1]; rats, milled in Pluronic F127): excellent; Upper and lower GI imaging [2]: excellent
2 µg/mL (≈ 2.65 µM)	CCOC(=O)CCCCCOC(=O)c1c(I)c(NC(C)=O)c(I)c(NC(C)=O)c1I [WIN 67722, 6-Ethoxy-6-oxohexyl 3,5-bis(acetylamino)-2,4,6-triiodobenzoate]	–	poor	Upper GI imaging [1]: good
1 µg/mL (≈ 1.27 µM)	CC(=O)Nc1c(I)c(NC(C)=O)c(I)c(C(=O)OCc2ccc(C(=O)OC(C)C)cc2)c1I [WIN 67956, 3,5-Bis-acetylamino-2,4,6-triiodo-benzoic acid 4-isopropyl benzoate ester]	good	–	Gastric emptying [1]: very rapid gastric emptying; Coating ([1]; repeated with air given at 15 minutes to induce double contrast): No improvement in coating
8 µg/mL (≈ 10.2 µM)	CCOC(=O)C(C)(OC(=O)c1c(I)c(NC(C)=O)c(I)c(NC(C)=O)c1I)C(=O)OCC [WIN 67975]	fair	–	–
1 µg/mL (≈ 1.3 µM)	CC(=O)Nc1c(I)c(NC(C)=O)c(I)c(C(=O)OCCCCCC(=O)OC(C)C)c1I [WIN 67995, 3,5,-Bis-acetylamino-2,4,6-triiodo-benzoic acid 5-isopropoxycarbonyl-pentylester]	–	poor	Upper GI imaging [1]: good
1 µg/mL (≈ 1.25 µM)	CC(=O)Nc1c(I)c(NC(C)=O)c(I)c(C(=O)OC(C(=O)OC(C)C)C(=O)OC(C)C)c1I [WIN 68165, Propanedioic Acid, [[3,5-bis-(acetylamino)-2,4,6-triiodo-benzoyl]oxy]-bis(1-methylethyl)ester]	fair	–	–
